Test results reported in patent publication US12459925B2, “Sulphonyl urea derivatives as NLRP3 inflammasome modulators” (priority 2017, dated 2025).

Tested on: IL-1β release upon NLRP3 activation in peripheral blood mononuclear cells (PBMC)
Experiment: PBMC IC50 determination assay (IL-1β release, Protocol A ELISA / Protocol B HTRF)
Assay type: cell-based
Conditions: Homo sapiens; PBMC primed with LPS 3 h, compound 30 min, stimulated with ATP (5 mM) or nigericin (10 μM) 1 h; IL-1β in media; read-out: Average PBMC IC50
Method: The compounds of the present disclosure were tested for their inhibitory activity against IL-1β release upon NLRP3 activation in peripheral blood mononuclear cells (PBMC).
Isolated cells were seeded into the wells of a 96-well plate and incubated for 3 h with lipopolysaccharide (LPS). Following medium exchange, the compounds of the present disclosure were added (a single compound per well) and the cells were incubated for 30 min. Next, the cells were stimulated either with ATP (5 mM) or nigericin (10 μM) for 1 h and the cell culture media from the wells were collected for further analysis.
The release of IL1-β into the media was determined by a quantitative detection of IL-1β in the media using an IL-1β enzyme-linked immunosorbent assay (ELISA) Ready-SET-Go!, eBioscience cat. […] Subsequently, plates were blocked with blocking buffer for 1 h at room temperature (rt) and after washing with a buffer (PBS with 0.05% Tween-20) incubated with protein standard and culture media. […] Plates were washed and incubated with HRP-streptavidin for 30 min at rt and washed again. The signal was developed after addition of 3,3′,5,5′-tetramethylbenzidine-peroxidase (TMB) until colour appeared and the reaction was stopped by 2 M H2SO4. A microplate spectrophotometer (BioTek) was used to detect signals with 450 nm. The detection range of IL-1β ELISA was 2-150 ng/ml.
Isolated cells were seeded into the wells (280,000 cells/well) of a 96-well plate and incubated for 3 h with lipopolysaccharide (LPS, 1 μg/ml diluted 1000× from a 1 mg/ml stock solution). The compounds of the present disclosure were added (a single compound per well) and the cells were incubated for 30 min. Next, the cells were stimulated with ATP (5 mM final concentration diluted 20× from a 100 mM stock solution) for 1 h and the cell culture media from the wells were collected for further analysis.
The release of IL-1β into the media was determined by quantitative detection of IL-1β in the media using HTRF®, CisBio cat. No. 62HIL1BPEH. Briefly, cell culture supernatant were dispensed directly into the assay plate containing antibodies labelled with the HTRF® donor and acceptor. A microplate spectrophotometer (BMG) was used to detect signals at 655 nm and 620 nm. The detection range of IL-1β HTRF® was 39-6500 pg/ml.

| Structure (SMILES) | IC50 |
| --- | --- |
| CCN1CCCC(N(c2cnn(C)c2)S(=O)(=O)NC(=O)Nc2c3c(cc4c2CCC4)CCC3)C1 (stereo not shown) [Compound 62] | < 1000 nM |
| Cc1nn(C)c(C)c1N(C1CCOCC1)S(=O)(=O)NC(=O)Nc1c2c(cc3c1CCC3)CCC2 [Compound 11] | < 1000 nM |
| CN1CCC(N(c2ccn(C)n2)S(=O)(=O)NC(=O)Nc2c3c(cc4c2CCC4)CCC3)CC1 [Compound 20] | < 1000 nM |
| Cn1cc(N(C2CCCOC2)S(=O)(=O)NC(=O)Nc2c3c(cc4c2CCC4)CCC3)cn1 (stereo not shown) [Compound 22] | < 1000 nM |
| O=C(Nc1c2c(cc3c1CCC3)CCC2)NS(=O)(=O)N(c1cnn(CC(F)(F)F)c1)C1CCOCC1 [Compound 26] | < 1000 nM |
| CN1CCC(N(c2cnn(C(F)F)c2)S(=O)(=O)NC(=O)Nc2c3c(cc4c2CCC4)CCC3)CC1 [Compound 34] | < 1000 nM |
| CN1CCCC(N(c2cnn(C)c2)S(=O)(=O)NC(=O)Nc2c3c(cc4c2CCC4)CCC3)C1 (stereo not shown) [Compound 23] | < 1000 nM |
| CN(C)CCn1cc(N(C2CCOCC2)S(=O)(=O)NC(=O)Nc2c3c(cc4c2CCC4)CCC3)cn1 [Compound 43] | < 1000 nM |
| CCc1cc(NC(=O)NS(=O)(=O)N(c2cnn(C)c2)C2CCOCC2)cc(CC)c1F [Compound 80] | 1000 to 3000 nM |
| Cn1cc(N(C2CC3(COC3)C2)S(=O)(=O)NC(=O)Nc2c3c(cc4c2CCC4)CCC3)cn1 [Compound 66] | 1000 to 3000 nM |
| CC(C)n1cc(N(C2CCCN(C)C2)S(=O)(=O)NC(=O)Nc2c3c(cc4c2CCC4)CCC3)cn1 (stereo not shown) [Compound 55] | < 1000 nM |
| CN1CCC(N(c2cnn(C3CCC3)c2)S(=O)(=O)NC(=O)Nc2c3c(cc4c2CCC4)CCC3)CC1 [Compound 44] | < 1000 nM |
| CC(C)c1cccc(NC(=O)NS(=O)(=O)N(c2cnn(C)c2)C2CCOCC2)c1 [Compound 71] | 10000 to 50000 nM |
| CN1CCCC(N(c2cnn(C)c2)S(=O)(=O)NC(=O)Nc2c3c(cc4c2CCC4)CCC3)CC1 (stereo not shown) [Compound 67] | < 1000 nM |
| CC1CCCC(C)C1NC(=O)NS(=O)(=O)N(c1cnn(C)c1)C1CCOCC1 (stereo not shown) [Compound 88] | < 1000 nM |
| Cn1ncc(N(C2CCOCC2)S(=O)(=O)NC(=O)Nc2c3c(cc4c2CCC4)CCC3)n1 [Compound 96] | < 1000 nM |

| Structure (SMILES) | IC50 |
| --- | --- |
| Cn1cc(N(C2CCOCC2)S(=O)(=O)NC(=O)Nc2cc(Cl)cc(Cl)c2)cn1 [Compound 72] | 1000 to 3000 nM |
| COCCn1cc(N(C2CCOCC2)S(=O)(=O)NC(=O)Nc2c3c(cc4c2CCC4)CCC3)cn1 [Compound 29] | < 1000 nM |
| CC(C)c1cc(NC(=O)NS(=O)(=O)N(c2cnn(C)c2)C2CCOCC2)cc(C(C)C)c1 [Compound 73] | 1000 to 3000 nM |
| COCCn1cc(N(C2CCN(C)CC2)S(=O)(=O)NC(=O)Nc2c3c(cc4c2CCC4)CCC3)cn1 [Compound 38] | < 1000 nM |
| Cn1cc(N(C2CCOCC2(C)C)S(=O)(=O)NC(=O)Nc2c3c(cc4c2CCC4)CCC3)cn1 (stereo not shown) [Compound 78] | < 1000 nM |
| CN1CCC(N(c2cnn(CC(F)F)c2)S(=O)(=O)NC(=O)Nc2c3c(cc4c2CCC4)CCC3)CC1 [Compound 36] | < 1000 nM |
| COCn1cc(N(C2CCN(C)CC2)S(=O)(=O)NC(=O)Nc2c3c(cc4c2CCC4)CCC3)cn1 [Compound 28] | < 1000 nM |
| Cn1cc(N(CCN2CCOCC2)S(=O)(=O)NC(=O)Nc2c3c(cc4c2CCC4)CCC3)cn1 [Compound 46] | < 1000 nM |
| Cc1cc(N(C2CCOCC2)S(=O)(=O)NC(=O)Nc2c3c(cc4c2CCC4)CCC3)no1 [Compound 12] | 3000 to 10000 nM |
| Cn1ccc(N(C2CCOCC2)S(=O)(=O)NC(=O)Nc2c3c(cc4c2CCC4)CCC3)n1 [Compound 9] | < 1000 nM |
| CC(C)N1CC(N(c2cnn(C)c2)S(=O)(=O)NC(=O)Nc2c3c(cc4c2CCC4)CCC3)C1 [Compound 64] | < 1000 nM |
| CCn1cc(N(C2CCOCC2)S(=O)(=O)NC(=O)Nc2c3c(cc4c2CCC4)CCC3)cn1 [Compound 6] | < 1000 nM |
| Cc1cc(N(C2CCOCC2)S(=O)(=O)NC(=O)Nc2c3c(cc4c2CCC4)CCC3)sn1 [Compound 113] | < 1000 nM |
| CN1CCC(N(c2cnn(C3COC3)c2)S(=O)(=O)NC(=O)Nc2c3c(cc4c2CCC4)CCC3)CC1 [Compound 42] | < 1000 nM |
| N#CCn1cc(N(C2CCOCC2)S(=O)(=O)NC(=O)Nc2c3c(cc4c2CCC4)CCC3)cn1 [Compound 30] | < 1000 nM |
